The text below walks through data of patent US5484934A, “Isothiazole derivatives, a process for production thereof and uses thereof” (Nihon Nohyaku Co., Ltd., priority 1992, dated 1996).

One assay deals with Coriolus versicolor. The assay can be described thus: Inhibition of hypha growth on malt extract agar, Coriolus versicolor. The class given is cell-based. Particulars: Trametes versicolor, 28±2° C., 2 to 10 days, read-out: Controlling effect (growth inhibition rate) COV.
The subject of assay [1] is Pseudoperonospora cubensis. In words: Controlling effect on cucumber Downy mildew. It counts as in vivo. Particulars: 168 h, 200 ppm spray, inoculation after 24 hours, read-out: Controlling effect Pc (cucumber downy mildew).
Another assay relates to Phytophthora infestants. In words: whole plant or invertebrate. It counts as in vivo. Particulars: 168 h; read-out: Controlling effect Pi (tomato late blight).
For a further assay, the system named is Pyricularia oryzae. In words: whole plant or invertebrate. It counts as in vivo. Particulars: 168 h, read-out: Controlling effect Ps (rice blast).
The next assay concerns Botrytis cinerea. In words: Controlling effect (curing effect) on cucumber gray mold. The class given is in vivo. Particulars: 72 h, immersion of inoculated cotyledons, 15° C., read-out: Controlling effect Bc (cucumber gray mold). The method, then: Controlling effect (curing effect) on cucumber gray mold The cotyledons of potted cucumber plants at the 1 leaf stage were cut off and each of them was inoculated with a mycelial tuft of gray mold fungus (Botrytis cinerea) cultured on PSA medium. After having been placed in a moist chamber at 15° C. for 24 hours, the cotyledons were immersed in a 200 ppm liquid chemical containing each compound of the present invention as active ingredient. […]

The test system of a further assay is Alternaria mali. In words: Inhibition of hypha growth on malt extract agar, Alternaria mali. Particulars: read-out: Controlling effect (growth inhibition rate) ALM.
The test system of another assay is Serpula lacrymans. In words: Inhibition of hypha growth on malt extract agar, Serpula lacrymans. Particulars: read-out: Controlling effect (growth inhibition rate) SEL.
The subject of another assay is Aspergillus niger. The assay can be described thus: Inhibition of hypha growth on malt extract agar, Aspergillus niger. Particulars: read-out: Controlling effect (growth inhibition rate) ASN.
A further assay concerns Trichoderma viride. The assay can be described thus: Inhibition of hypha growth on malt extract agar, Trichoderma viride. Particulars: read-out: Controlling effect (growth inhibition rate) TRV.
A further assay relates to Fusarium oxysporum. In words: Inhibition of hypha growth on malt extract agar, Fusarium oxysporum. Particulars: read-out: Controlling effect (growth inhibition rate) FUO.
The next assay has as its system Rhizopus nigricans. In words: Inhibition of hypha growth on malt extract agar, Rhizopus nigricans. Particulars: Rhizopus stolonifer, read-out: Controlling effect (growth inhibition rate) RHS.
For another assay, the system named is Tyromyces palustris. The assay can be described thus: Inhibition of hypha growth on malt extract agar, Tyromyces palustris. Particulars: read-out: Controlling effect (growth inhibition rate) TYP.
Another assay deals with Chaetomium globosum. The assay can be described thus: Inhibition of hypha growth on malt extract agar, Chaetomium globosum. Particulars: read-out: Controlling effect (growth inhibition rate) CHG.
Assay [2] has as its system Cladosporium cladosporioides. In words: Inhibition of hypha growth on malt extract agar, Cladosporium cladosporioides. Particulars: read-out: Controlling effect (growth inhibition rate) CLC.
Procedure: (§1) Each preparation to be tested was added to malt extract agar medium to adjust the concentration to 50 ppm, and the resulting mixture was dispensed into Petri dishes. As an inoculum, a prepared mycerial tuft of each test fungus was punched out together with agar by means of a 4-mm-diameter cork borer and inoculated on medium. The incubation temperature was adjusted to 28±2° .C (or 18±2° C. in the case of Selupula lacrymas).
(§2) The diameter of mycerial tuft was measured 2 to 10 days after the inoculation, and the inhibition rate of hypha growth (the following equation) was measured.

Procedure for Alternaria mali: as §1, §2
(§3) The controlling effect was evaluated according to the following criterion.
Procedure for Aspergillus niger: as §1, §2, §3
Procedure for Chaetomium globosum: as §1, §2, §3
Procedure for Fusarium oxysporum: as §1, §2, §3
Procedure for Rhizopus nigricans: as §1, §2
Procedure for Serpula lacrymans: as §1, §2
Procedure for Trichoderma viride: as §1, §2
Procedure for Tyromyces palustris: as §1, §2

The term inhibition denotes the share of the control response that was lost under treatment. As for `C#CCOc1nsc([S+](C)[O-])c1C#N` (stereo not shown) [Compound 16], the inhibition at 50 ppm was 85 to 99% in the assay on Coriolus versicolor; 100% with Alternaria mali; 100% in the assay on Serpula lacrymans; 100% with Aspergillus niger; 100% in the assay with Trichoderma viride; 85 to 99% with Fusarium oxysporum. In addition, the inhibition at 50 ppm (in the assay on Rhizopus nigricans; in the assay with Tyromyces palustris; in the assay with Chaetomium globosum; in assay [2]) was 100% in each case. Besides, the pest or weed control at 200 ppm in [1] is 95 to 100%; with Phytophthora infestants, 95 to 100%; with Pyricularia oryzae it was 80 to 94%; in the assay on Botrytis cinerea, 60 to 79%.
Regarding `COc1nsc(S(C)(=O)=O)c1C#N` [Compound 20, 3-methoxy-4-cyano-5-methylsulfonylisothiazole], the inhibition at 50 ppm in the assay with Coriolus versicolor, with Alternaria mali, in the assay with Serpula lacrymans, in the assay on Aspergillus niger, with Trichoderma viride and in the assay on Fusarium oxysporum was 100% each time. The inhibition at 50 ppm (in the assay on Rhizopus nigricans; in the assay with Tyromyces palustris; in the assay with Chaetomium globosum; in assay [2]) was 100% each time. For the same compound, the pest or weed control at 200 ppm in assay [1] was in the range of 95 to 100%; with Phytophthora infestants, 95 to 100%; with Pyricularia oryzae, 95 to 100%; in the assay on Botrytis cinerea, 60 to 79%.
With `C=CCOc1nsc(S(C)(=O)=O)c1C#N` [Compound 22], the inhibition at 50 ppm in the assay with Coriolus versicolor is 100%; in the assay on Alternaria mali, 85 to 99%; in the assay on Serpula lacrymans, 100%; in the assay on Aspergillus niger, 85 to 99%; in the assay with Trichoderma viride, 85 to 99%; with Fusarium oxysporum it was 85 to 99%. For the same compound, the inhibition at 50 ppm is 85 to 99% in the assay with Rhizopus nigricans, 100% in the assay on Tyromyces palustris, 55 to 84% in the assay on Chaetomium globosum and 100% in assay [2]. The pest or weed control at 200 ppm in assay [1] is 80 to 94%; in the assay on Phytophthora infestants it was 95 to 100%; in the assay with Pyricularia oryzae, 95 to 100%; with Botrytis cinerea, 0 to 59%.
For `CS(=O)(=O)c1snc(OC(F)F)c1C#N` [Compound 24, 3-difluoromethoxy-4-cyano-5-methylsulfonylisothiazole], the inhibition at 50 ppm is 100% in the assay on Coriolus versicolor; 100% in the assay on Alternaria mali; 100% with Serpula lacrymans; 100% with Aspergillus niger; 100% in the assay with Trichoderma viride; 85 to 99% in the assay on Fusarium oxysporum. Also, the inhibition at 50 ppm in the assay with Rhizopus nigricans was 85 to 99%; with Tyromyces palustris, 100%; in the assay on Chaetomium globosum it was 55 to 84%; in assay [2] it was 100%. In addition, the pest or weed control at 200 ppm in assay [1] lay in the range of 95 to 100%; in the assay on Phytophthora infestants, 95 to 100%; in the assay with Pyricularia oryzae it was 95 to 100%; with Botrytis cinerea, 0 to 59%.
`CC(C)Oc1nsc(S(C)(=O)=O)c1C#N` [Compound 50]: the inhibition at 50 ppm with Coriolus versicolor, in the assay on Alternaria mali, with Serpula lacrymans, with Aspergillus niger, with Trichoderma viride and with Fusarium oxysporum was 100% in each case. Moreover, the inhibition at 50 ppm (with Rhizopus nigricans; with Tyromyces palustris; with Chaetomium globosum; in assay [2]) was 100% each time. For the same compound, the pest or weed control at 200 ppm in [1] lay in the range of 95 to 100%; with Phytophthora infestants, 80 to 94%; with Pyricularia oryzae, 80 to 94%; in the assay on Botrytis cinerea, 0 to 59%.
Take `C#CCOc1nsc(S(=O)(=O)CCOCC)c1C#N` [Compound 82]: the inhibition at 50 ppm with Coriolus versicolor, in the assay on Alternaria mali, in the assay on Serpula lacrymans, in the assay with Aspergillus niger, with Trichoderma viride and with Fusarium oxysporum was 100% in each case. The inhibition at 50 ppm (with Rhizopus nigricans; with Tyromyces palustris; in the assay with Chaetomium globosum; in assay [2]) was 100% throughout. The pest or weed control at 200 ppm in [1] is 95 to 100%; in the assay on Phytophthora infestants, 95 to 100%; in the assay on Pyricularia oryzae, 95 to 100%; with Botrytis cinerea it was 60 to 79%.
With `COc1nsc(S(=O)(=O)c2ccccc2)c1C#N` [Compound 89, 3-methoxy-4-cyano-5-phenylsulfonylisothiazole], the inhibition at 50 ppm with Coriolus versicolor, in the assay with Alternaria mali, with Serpula lacrymans, in the assay with Aspergillus niger, with Trichoderma viride and with Fusarium oxysporum was 100% in each case. Further, the inhibition at 50 ppm (in the assay with Rhizopus nigricans; with Tyromyces palustris; with Chaetomium globosum; in assay [2]) was 100% in each case. Also, the pest or weed control at 200 ppm in assay [1] lay in the range of 80 to 94%; in the assay with Phytophthora infestants it was 95 to 100%; in the assay on Pyricularia oryzae, 95 to 100%; in the assay on Botrytis cinerea, 60 to 79%.
Consider `COc1nsc(S(=O)(=O)c2ccc(Cl)cc2)c1C#N` [Compound 93], for which the inhibition at 50 ppm in the assay on Coriolus versicolor, in the assay with Alternaria mali, in the assay on Serpula lacrymans, with Aspergillus niger, in the assay with Trichoderma viride and in the assay with Fusarium oxysporum was 100% throughout. Also, the inhibition at 50 ppm (in the assay on Rhizopus nigricans; in the assay on Tyromyces palustris; with Chaetomium globosum; in [2]) was 100% in each case. Moreover, the pest or weed control at 200 ppm in assay [1] is 95 to 100%; in the assay on Phytophthora infestants, 95 to 100%; in the assay with Pyricularia oryzae, 95 to 100%; in the assay on Botrytis cinerea, 60 to 79%.
For `COc1nsc(S(=O)(=O)C(F)F)c1C#N` [Compound 140], the inhibition at 50 ppm in the assay on Coriolus versicolor, in the assay on Alternaria mali, in the assay on Serpula lacrymans, with Aspergillus niger, in the assay with Trichoderma viride and in the assay on Fusarium oxysporum was 100% in each case. Moreover, the inhibition at 50 ppm (in the assay on Rhizopus nigricans; in the assay on Tyromyces palustris; with Chaetomium globosum; in [2]) was 100% in each case. Moreover, the pest or weed control at 200 ppm (in assay [1]; with Phytophthora infestants; in the assay on Pyricularia oryzae; with Botrytis cinerea) was 95 to 100% throughout.
With `CC(C)Oc1nsc(S(=O)(=O)C(F)F)c1C#N` [Compound 144], the inhibition at 50 ppm with Coriolus versicolor, in the assay with Alternaria mali, in the assay with Serpula lacrymans, in the assay with Aspergillus niger, in the assay on Trichoderma viride and in the assay on Fusarium oxysporum was 100% each time. In addition, the inhibition at 50 ppm (in the assay on Rhizopus nigricans; with Tyromyces palustris; with Chaetomium globosum; in assay [2]) was 100% in each case. Besides, the pest or weed control at 200 ppm (in assay [1]; in the assay on Phytophthora infestants; in the assay on Pyricularia oryzae; with Botrytis cinerea) was 95 to 100% throughout.
With `C#CCOc1nsc(S(=O)(=O)C(F)F)c1C#N` [Compound 148], the inhibition at 50 ppm with Coriolus versicolor, in the assay on Alternaria mali, in the assay on Serpula lacrymans, with Aspergillus niger, in the assay on Trichoderma viride and in the assay with Fusarium oxysporum was 100% each time. Also, the inhibition at 50 ppm (in the assay with Rhizopus nigricans; with Tyromyces palustris; with Chaetomium globosum; in assay [2]) was 100% in each case. The pest or weed control at 200 ppm in [1] was 80 to 94%; in the assay on Phytophthora infestants, 95 to 100%; with Pyricularia oryzae it was 95 to 100%; in the assay with Botrytis cinerea, 60 to 79%.
